Reference: ChEMBL document CHEMBL2086273, “Significant activity of ecdysteroids on the resistance to doxorubicin in mammalian cancer cells expressing the human ABCB1 transporter” (J Med Chem, 2012)

Columns and labels:
Assay type in all cases: cell-based
[1] = target: T1, ATP-dependent translocase ABCB1 (Homo sapiens, UniProt P08183); test: Inhibition of human ABCB1 pump expressed in mouse L5178 cells assessed as fluorescence activity ratio at 20 uM for 10 mins by flow cytometry relative to control; conditions: l5178, 10 min
[2] = target: T1, ATP-dependent translocase ABCB1; test: Inhibition of human ABCB1 expressed in mouse L5178 cells assessed as 95% inhibition of cell proliferation at compound-doxorubicin ratio of 40.8:1 after 48 hrs by MTT assay; conditions: l5178, 48 h
[3] = target: T1, ATP-dependent translocase ABCB1; test: Inhibition of human ABCB1 expressed in mouse L5178 cells assessed as 75% inhibition of cell proliferation at compound-doxorubicin ratio of 40.8:1 after 48 hrs by MTT assay; conditions: l5178, 48 h
[4] = target: T1, ATP-dependent translocase ABCB1; test: Inhibition of human ABCB1 expressed in mouse L5178 cells assessed as 50% inhibition of cell proliferation at compound-doxorubicin ratio of 40.8:1 after 48 hrs by MTT assay; conditions: l5178, 48 h
[5] = target: T1, ATP-dependent translocase ABCB1; test: Inhibition of human ABCB1 expressed in mouse L5178 cells assessed as 50% inhibition of cell proliferation at compound-doxorubicin ratio of 20.4:1 after 48 hrs by MTT assay; conditions: l5178, 48 h
[6] = target: T1, ATP-dependent translocase ABCB1; test: Inhibition of human ABCB1 expressed in mouse L5178 cells assessed as 95% inhibition of cell proliferation at compound-doxorubicin ratio of 20.4:1 after 48 hrs by MTT assay; conditions: l5178, 48 h
[7] = target: T1, ATP-dependent translocase ABCB1; test: Inhibition of human ABCB1 expressed in mouse L5178 cells assessed as 75% inhibition of cell proliferation at compound-doxorubicin ratio of 20.4:1 after 48 hrs by MTT assay; conditions: l5178, 48 h

T1 sequence (P08183 whole entry): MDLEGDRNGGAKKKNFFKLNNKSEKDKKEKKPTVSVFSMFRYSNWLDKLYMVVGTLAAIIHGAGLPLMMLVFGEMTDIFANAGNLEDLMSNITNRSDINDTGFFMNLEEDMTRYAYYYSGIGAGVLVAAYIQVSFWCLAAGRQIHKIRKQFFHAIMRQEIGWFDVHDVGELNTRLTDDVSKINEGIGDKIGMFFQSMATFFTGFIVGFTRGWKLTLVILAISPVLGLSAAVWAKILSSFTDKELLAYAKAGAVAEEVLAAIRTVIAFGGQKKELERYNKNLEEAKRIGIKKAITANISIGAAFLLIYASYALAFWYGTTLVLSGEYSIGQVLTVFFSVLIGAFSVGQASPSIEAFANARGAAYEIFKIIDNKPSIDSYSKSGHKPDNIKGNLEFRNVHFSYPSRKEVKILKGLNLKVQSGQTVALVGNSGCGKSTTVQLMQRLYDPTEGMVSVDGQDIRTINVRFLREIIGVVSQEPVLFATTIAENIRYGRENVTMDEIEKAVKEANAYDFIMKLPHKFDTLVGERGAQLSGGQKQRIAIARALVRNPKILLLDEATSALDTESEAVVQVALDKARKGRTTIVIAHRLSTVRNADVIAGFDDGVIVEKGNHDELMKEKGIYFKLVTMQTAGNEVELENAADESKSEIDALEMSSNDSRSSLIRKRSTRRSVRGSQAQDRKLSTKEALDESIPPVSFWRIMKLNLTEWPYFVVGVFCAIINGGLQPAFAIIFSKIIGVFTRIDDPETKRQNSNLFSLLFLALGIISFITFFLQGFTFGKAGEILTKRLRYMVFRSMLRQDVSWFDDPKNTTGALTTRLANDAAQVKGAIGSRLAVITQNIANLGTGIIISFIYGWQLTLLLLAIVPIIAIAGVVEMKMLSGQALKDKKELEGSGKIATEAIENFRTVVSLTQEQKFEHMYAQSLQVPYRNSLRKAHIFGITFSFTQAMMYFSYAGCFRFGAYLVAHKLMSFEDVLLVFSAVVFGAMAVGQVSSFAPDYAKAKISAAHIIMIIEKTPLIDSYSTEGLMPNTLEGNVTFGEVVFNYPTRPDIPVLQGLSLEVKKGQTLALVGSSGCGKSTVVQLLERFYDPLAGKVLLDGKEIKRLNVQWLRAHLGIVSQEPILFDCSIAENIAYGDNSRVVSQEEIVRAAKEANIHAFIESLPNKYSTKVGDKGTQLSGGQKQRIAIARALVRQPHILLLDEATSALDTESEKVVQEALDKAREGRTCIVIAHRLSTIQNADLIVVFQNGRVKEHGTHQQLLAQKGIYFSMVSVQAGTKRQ

C=C(CCCC(C)(C)O)[C@H]1CC[C@@]2(O)C3=CC(=O)[C@@H]4C[C@@H](O)[C@@H](O)C[C@]4(C)[C@H]3CC[C@]12C
Ratio [1]: 0.88 | fractional inhibitory concentration index (FICI) [2]: 0.53 | fractional inhibitory concentration index (FICI) [3]: 0.71 | fractional inhibitory concentration index (FICI) [4]: 1.05

CC[C@H](C[C@@H](O)[C@](C)(O)[C@H]1CC[C@@]2(O)C3=CC(=O)[C@@H]4C[C@@H](O)[C@@H](O)C[C@]4(C)[C@H]3CC[C@]12C)C(C)(C)O [MAKISTERONE C]
Ratio [1]: 0.66 | fractional inhibitory concentration index (FICI) [2]: 0.2 | fractional inhibitory concentration index (FICI) [3]: 0.42 | fractional inhibitory concentration index (FICI) [4]: 0.98

CC(O)(CO)CC[C@H]1OC(C)(C)O[C@]1(C)[C@H]1CC[C@@]2(O)C3=CC(=O)[C@]4(O)C[C@@H](O)[C@@H](O)C[C@]4(C)[C@H]3CC[C@]12C (some centres not stated)
Ratio [1]: 13.32 | fractional inhibitory concentration index (FICI) [2]: 0.062 | fractional inhibitory concentration index (FICI) [3]: 0.16 | fractional inhibitory concentration index (FICI) [4]: 0.42

C=C(C)CC[C@@H](O)[C@](C)(O)[C@H]1CC[C@@]2(O)C3=CC(=O)[C@@H]4C[C@@H](O)[C@@H](O)C[C@]4(C)C3=CC[C@]12C
Ratio [1]: 1.43 | fractional inhibitory concentration index (FICI) [2]: 0.43 | fractional inhibitory concentration index (FICI) [3]: 0.85 | fractional inhibitory concentration index (FICI) [4]: 1.75

CC(C)[C@@H](O)C[C@@H](O)[C@](C)(O)[C@H]1CC[C@@]2(O)C3=CC(=O)[C@@H]4C[C@@H](O)[C@@H](O)C[C@]4(C)[C@H]3CC[C@]12C [PTEROSTERONE]
Ratio [1]: 0.56 | fractional inhibitory concentration index (FICI) [2]: 0.54 | fractional inhibitory concentration index (FICI) [3]: 0.84 | fractional inhibitory concentration index (FICI) [4]: 1.32

CC(=O)O[C@H]1C[C@@]2(C)[C@@H](C[C@H]1OC(C)=O)C(=O)C=C1[C@@H]2CC[C@]2(C)[C@@H]([C@@](C)(O)[C@@H](CCC(C)(C)O)OC(C)=O)CC[C@@]12O
Ratio [1]: 1.25 | fractional inhibitory concentration index (FICI) [2]: 0.7 | fractional inhibitory concentration index (FICI) [3]: 0.91 | fractional inhibitory concentration index (FICI) [4]: 1.26

CC(C)CC[C@@H](O)[C@](C)(O)[C@H]1CC[C@@]2(O)C3=CC(=O)[C@@H]4C[C@@H](O)[C@@H](O)C[C@]4(C)C3=CC[C@]12C [DACRYHAINANSTERONE]
Ratio [1]: 1.07 | fractional inhibitory concentration index (FICI) [2]: 5.46 | fractional inhibitory concentration index (FICI) [3]: 2.92 | fractional inhibitory concentration index (FICI) [4]: 1.76

CC(C)(O)CC[C@@H](OC(=O)c1ccccc1)[C@](C)(O)[C@H]1CC[C@@]2(O)C3=CC(=O)[C@@H]4C[C@@H](O)[C@@H](O)C[C@]4(C)[C@H]3CC[C@]12C
Ratio [1]: 2.18 | fractional inhibitory concentration index (FICI) [2]: 0.32 | fractional inhibitory concentration index (FICI) [3]: 0.43 | fractional inhibitory concentration index (FICI) [4]: 0.58

CC(C)CC[C@H]1OC(C)(C)O[C@]1(C)[C@H]1CC[C@@]2(O)C3=CC(=O)[C@@H]4C[C@H]5OC(C)(C)O[C@H]5C[C@]4(C)[C@H]3[C@H](O)C[C@]12C
Ratio [1]: 46.49 | fractional inhibitory concentration index (FICI) [5]: 0.18 | fractional inhibitory concentration index (FICI) [6]: 0.12 | fractional inhibitory concentration index (FICI) [7]: 0.14

C=C(C)C(C[C@@H](O)[C@](C)(O)[C@H]1CC[C@@]2(O)C3=CC(=O)[C@]4(O)C[C@@H](O)[C@@H](O)C[C@]4(C)[C@H]3CC[C@]12C)C(C)O (some centres not stated) [AJUGASTERONE B]
Ratio [1]: 0.7 | fractional inhibitory concentration index (FICI) [2]: 0.3 | fractional inhibitory concentration index (FICI) [3]: 0.59 | fractional inhibitory concentration index (FICI) [4]: 1.21

CC(=O)O[C@H]1CC[C@@]2(C)[C@@H](C1)C(=O)C=C1[C@@H]2CC[C@]2(C)[C@@H]([C@H](C)[C@@H](CCC(C)(C)O)OC(C)=O)CC[C@@]12O
Ratio [1]: 0.97 | fractional inhibitory concentration index (FICI) [5]: 1.5 | fractional inhibitory concentration index (FICI) [6]: 0.5 | fractional inhibitory concentration index (FICI) [7]: 0.86

CC(C)(O)CC[C@@H](O)[C@](C)(O)[C@H]1CC[C@@]2(O)C3=CC(=O)[C@@H]4C[C@@H](O)[C@@H](O)C[C@]4(C)[C@H]3CC[C@]12C [20-HYDROXYECDYSONE]
Ratio [1]: 1.76 | fractional inhibitory concentration index (FICI) [5]: 2 | fractional inhibitory concentration index (FICI) [6]: 2.04 | fractional inhibitory concentration index (FICI) [7]: 2.02

CC(=O)O[C@H]1C[C@]2(C)[C@H]3CC[C@]4(C)[C@@H]([C@@](C)(O)[C@@H](CCC(C)(C)O)OC(C)=O)CC[C@@]4(O)C3=CC(=O)[C@]2(O)C[C@H]1OC(C)=O
Ratio [1]: 47.95 | fractional inhibitory concentration index (FICI) [2]: 0.26 | fractional inhibitory concentration index (FICI) [3]: 0.3 | fractional inhibitory concentration index (FICI) [4]: 0.35
